# Assay results reported in patent publication US20240091220A1, “METHODS OF MODULATING NEURONAL AND OLIGODENDROCYTE SURVIVAL” (priority 2021, published 2024).
# “Also recorded” adds a separate entry of the source.
# Legend:
# [1] = test system: reactive ACM-mediated toxicity; details: previous data, Liddelow et al. 2017; cited from earlier work
# oligodendrocytes [2] = details: dose curve, live/dead analysis 24 hours after treatment
# Method: Oligodendrocytes: Oligodendrocyte lineage cells were purified by immunopanning from P6 Sprague-Dawley forebrains and cultured as previously described (Dugas and Emery, “Purification of Oligodendrocyte Precursor Cells from Rat Cortices by Immunopanning,” Cold Spring Harbor Protocols 2013(8):745-758 (2013), which is hereby incorporated by reference in its entirety). Cortices were blunt dissected and enzymatically digested using papain at 37° C. and 10% CO2. Tissue was then mechanically triturated with a 5 mL serological pipette at room temperature to generate a single-cell suspension. […]
# All experiments began with identically plated cells that were randomly chosen for treatment, ensuring identical starting cell numbers for control and experimental conditions. […] Identical acquisition and illumination conditions were used within each experiment and cells were counted in ImageJ using custom macros, which involved background subtraction and thresholding following by particle counting. […]
# oligodendrocytes [3] = assay: Oligodendrocyte live/dead survival with ethoxyquin, with or without reactive ACM; assay type: cell-based, rat; details: for Slope of simple linear regression of oligodendrocyte survival on ethoxyquin dose: increasing doses of ethoxyquin in DMSO
# Method: For collection of astrocyte conditioned media, plates of astrocyte cultures from identical preps were randomly chosen as control or reactive. Reactive astrocyte cultures were treated for 24 hours with IL1α (3 ng/ml, Sigma, 13901), TNF (30 ng/ml, Cell Signaling Technology, 8902SF), and C1q (400 ng/ml, MyBioSource, MBS143105). Control and reactive astrocyte conditioned media (ACM) was collected and spun at ˜2000 g for 5 minutes to remove any dead cells or cell debris. ACM was then concentrated in a Vivaspin 30 kDa centrifugation tubes (Cytiva 28932361) to ˜10× concentration for subsequent experiments. The protein concentration of ACM was determined by Bradford Assay (Sigma-B6916) and used to ensure identical concentrations of reactive versus control ACM were used for further experiments. ACM was presented at a dose of 50 μg/ml in all experiments not otherwise denoted with an alternative concentration.
# Z1 (Zeiss) or on an Incucyte ZOOM (Essen Bioscience).
smiles,measurement,setting,value
CCOC(=O)c1ccc(NC2CCCCC2)c(N)c1 [Ferrostatin-1],Effect on reactive ACM-mediated (astrocyte) toxicity,[1],does not affect; also recorded: has no effect
CCCCCCCCCCCCCCCCCCCC(=O)OC[C@H](COP(=O)([O-])OCC[N+](C)(C)C)OC(=O)CCCCCCCCCCCCCCCCCCC [phosphatidylcholines (20:0)],Toxicity to oligodendrocytes (survival),oligodendrocytes [2],toxic to oligodendrocytes in a dose-dependent fashion
CCOc1ccc2c(c1)C(C)=CC(C)(C)N2 [ethoxyquin],Slope of simple linear regression of oligodendrocyte survival on ethoxyquin dose,oligodendrocytes [3]; with 30 μg/ml reactive ACM,−0.000001788
same,Slope of simple linear regression of oligodendrocyte survival on ethoxyquin dose,oligodendrocytes [3]; without reactive ACM,−0.0000025
same,Effect on toxicity of reactive ACM to oligodendrocytes,oligodendrocytes [3]; with reactive ACM,had no effect; also recorded: did not impact the toxicity of reactive ACM
same,Effect on oligodendrocyte survival when treated in isolation,oligodendrocytes [3]; without reactive ACM,did not impact cell survival
